Like-named read-outs stand apart in the source and are kept apart here.

One experiment relates to male C57Bl/6 mice. As to the kind of experiment: Mouse formalin paw assay for inflammatory pain. It counts as in vivo. The conditions noted are these: SC administration 30 min prior; morphine 5 mg/kg; compound 5 0.3, 1 or 3 mg/kg.
Experiment [1] deals with human recombinant dopamine D1 receptor (Homo sapiens, UniProt P21728). Briefly: Dopamine D1 receptor binding, [3H]SCH 23390 displacement. The note with it: for inhibition at 0.1 µM: read-out: D1 % inhibition.
Sequence of human recombinant dopamine D1 receptor (P21728 whole entry): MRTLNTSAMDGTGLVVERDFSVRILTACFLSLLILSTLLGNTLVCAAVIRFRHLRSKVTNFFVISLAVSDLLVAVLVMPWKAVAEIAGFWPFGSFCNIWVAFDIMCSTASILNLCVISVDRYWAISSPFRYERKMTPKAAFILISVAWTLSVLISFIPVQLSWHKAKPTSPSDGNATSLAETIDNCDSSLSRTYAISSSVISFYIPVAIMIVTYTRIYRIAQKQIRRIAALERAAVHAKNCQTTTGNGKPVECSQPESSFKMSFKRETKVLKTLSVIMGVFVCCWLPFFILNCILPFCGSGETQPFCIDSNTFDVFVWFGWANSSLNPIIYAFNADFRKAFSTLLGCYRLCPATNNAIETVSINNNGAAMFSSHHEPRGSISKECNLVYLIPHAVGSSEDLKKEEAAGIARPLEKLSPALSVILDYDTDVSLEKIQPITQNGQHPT
Experiment [2] deals with T1, human full-length recombinant serotonin 5-HT2A receptors (Homo sapiens, UniProt P28223).
T1 construct: human full-length recombinant serotonin 5-HT2A receptors expressed in HEK-293E cells
T1 sequence (P28223 whole entry): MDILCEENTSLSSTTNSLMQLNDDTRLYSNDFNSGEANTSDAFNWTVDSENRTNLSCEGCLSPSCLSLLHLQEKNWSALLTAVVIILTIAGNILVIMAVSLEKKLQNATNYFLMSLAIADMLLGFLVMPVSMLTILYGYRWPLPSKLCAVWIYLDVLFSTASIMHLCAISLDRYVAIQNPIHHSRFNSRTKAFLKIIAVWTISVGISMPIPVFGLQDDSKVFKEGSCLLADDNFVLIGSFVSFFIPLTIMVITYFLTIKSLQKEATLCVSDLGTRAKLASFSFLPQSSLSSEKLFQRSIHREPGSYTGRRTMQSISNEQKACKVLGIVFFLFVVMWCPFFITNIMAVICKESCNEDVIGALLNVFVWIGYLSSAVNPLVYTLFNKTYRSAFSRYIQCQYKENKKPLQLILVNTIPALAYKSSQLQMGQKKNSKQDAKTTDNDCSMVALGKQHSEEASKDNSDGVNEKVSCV
As to the kind of experiment: biochemical. Format: binding. The note with it: for inhibition at 0.1 µM: read-out: 5-HT2A % inhibition.

For experiment [3], the target named is T2, human recombinant 5-HT transporter (SERT) (Homo sapiens, UniProt P31645).
T2 construct: host or cells: CHO-S / SERT (h), cell membrane homogenates
T2 sequence (P31645 whole entry): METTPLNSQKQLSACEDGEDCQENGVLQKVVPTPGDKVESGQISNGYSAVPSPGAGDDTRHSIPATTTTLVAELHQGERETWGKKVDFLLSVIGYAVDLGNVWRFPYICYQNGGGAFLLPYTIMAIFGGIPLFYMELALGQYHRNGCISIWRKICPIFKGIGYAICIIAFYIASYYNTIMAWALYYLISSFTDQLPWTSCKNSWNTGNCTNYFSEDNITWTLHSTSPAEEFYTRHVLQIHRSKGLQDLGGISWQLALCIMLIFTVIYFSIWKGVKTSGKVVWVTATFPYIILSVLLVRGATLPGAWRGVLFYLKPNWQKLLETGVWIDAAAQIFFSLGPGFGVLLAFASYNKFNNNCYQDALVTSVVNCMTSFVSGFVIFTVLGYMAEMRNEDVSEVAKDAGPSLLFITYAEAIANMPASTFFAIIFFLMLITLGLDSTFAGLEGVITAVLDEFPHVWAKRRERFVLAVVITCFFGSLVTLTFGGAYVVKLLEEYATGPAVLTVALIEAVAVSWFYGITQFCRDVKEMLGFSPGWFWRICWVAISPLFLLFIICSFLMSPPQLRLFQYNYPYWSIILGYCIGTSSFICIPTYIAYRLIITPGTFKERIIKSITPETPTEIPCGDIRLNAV
Briefly: biochemical. The note with it: for inhibition at 0.2 µM / inhibition at 0.1 µM: read-out: SERT % inhibition. Format: binding.

Experiment [4] deals with human recombinant dopamine D2 short receptor (Homo sapiens, UniProt P14416). As to the kind of experiment: Dopamine D2 receptor binding, [3H]7-OH-DPAT displacement. The conditions noted are these: for inhibition at 0.1 µM: read-out: D2 % inhibition.
Sequence of human recombinant dopamine D2 short receptor (P14416 1-414 isoform P14416-2): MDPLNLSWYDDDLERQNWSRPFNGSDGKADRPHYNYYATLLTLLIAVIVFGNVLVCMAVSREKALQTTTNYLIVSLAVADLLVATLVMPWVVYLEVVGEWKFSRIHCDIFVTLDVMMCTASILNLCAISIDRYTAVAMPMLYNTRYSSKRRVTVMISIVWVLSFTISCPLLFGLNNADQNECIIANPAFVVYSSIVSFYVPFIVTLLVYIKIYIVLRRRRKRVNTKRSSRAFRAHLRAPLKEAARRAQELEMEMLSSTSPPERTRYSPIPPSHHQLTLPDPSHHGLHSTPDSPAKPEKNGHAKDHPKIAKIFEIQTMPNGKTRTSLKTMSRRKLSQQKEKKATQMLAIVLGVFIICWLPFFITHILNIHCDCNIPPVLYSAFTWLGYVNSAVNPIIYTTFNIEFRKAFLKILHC
The test system of another experiment is male CD-1 mice. The conditions noted are these: mouse, in vivo.
Where [5] appears, read: inhibition at 100 nM, NI = no inhibition.

The inhibition is the percentage by which the read-out fell short of the control. In the case of `O=C1CN2c3c(cccc3[C@@H]3CN(CCCOc4ccc(F)cc4)CC[C@@H]32)N1` [compound 5, (6bR,10aS)-8-(3-(4-Fluorophenoxy)propyl)-6b,7,8,9,10,10a-hexahydro-1H-pyrido[3′,4′:4,5]pyrrolo[1,2,3-de]quinoxalin-2(3H)-one], in the experiment on male C57Bl/6 mice, the “licking response to formalin injection” value is listed as “dose-dependently reduced”. In experiment [1], the “D1(Ki or (% Inhibition)): % inhibition” value is listed as 50 (44%) and the inhibition at 0.1 µM turned out to be 44%.

For the molecule `Cc1cc(F)cc(C)c1OCCCN1CC[C@H]2[C@@H](C1)c1cccc3c1N2CC(=O)N3` [compound 43, (6bR,10aS)-8-(3-(4-Fluoro-2,6-dimethylphenoxy)propyl)-6b,7,8,9,10,10a-hexahydro-1H-pyrido[3′,4′:4,5]-pyrrolo[1,2,3-de]quinoxalin-2(3H)-one], the figures for the inhibition at 0.1 µM in experiment [2], in experiment [1] and in experiment [4] were 40%, less than 0% and less than 0%, respectively. In experiment [3], the inhibition at 0.2 µM was found to be 34%.

In general, Ki refers to the equilibrium dissociation constant of an inhibitor or competing ligand from its target. As for `O=C1CN2c3c(cccc3[C@@H]3CN(CCCOc4ccc(F)c(F)c4)CC[C@@H]32)N1` [compound 39, (6bR,10aS)-8-(3-(3,4-Difluorophenoxy)propyl)-6b,7,8,9,10,10a-hexahydro-1H-pyrido[3′,4′:4,5]pyrrolo-[1,2,3-de]quinoxalin-2(3H)-one], in experiment [2], the “5-HT2A (Ki or (% Inhibition)): % inhibition” value is reported as 16.1 (71%), the Ki was 16.1 nM, the “fold reduction of affinity to 5-HT2A receptors” value is recorded as “approximately 6 fold” and the inhibition at 0.1 µM was 71%. In addition, in experiment [1], the “D1(Ki or (% Inhibition)): % inhibition” value was 232 (15%), the Ki was determined as 232 nM and the inhibition at 0.1 µM was determined as 15%. In experiment [3], the Ki came out at 508 nM, the “SERT (Ki or (% Inhibition)): % inhibition” value is reported as 508 (15%) and the inhibition at 0.2 µM is 15%. In experiment [4], the “D2(Ki or (% Inhibition)): % inhibition” value is 1620 (7%), the inhibitory constant (Ki) was determined as 1620 nM and the inhibition at 0.1 µM turned out to be 7%.

`O=C1CN2c3c(cccc3[C@@H]3CN(CCCOc4ccc(Br)cc4)CC[C@@H]32)N1` [compound 30, (6bR,10aS)-8-(3-(4-Bromophenoxy)propyl)-6b,7,8,9,10,10a-hexahydro-1H-pyrido[3′,4′:4,5]pyrrolo-[1,2,3-de]quinoxalin-2(3H)-one]: the inhibition at 0.1 µM is 70% in experiment [2], less than 0% in experiment [1] (setting [5]), 44% in experiment [3] and 8.4% in experiment [4] (setting [5]).

Take `O=C1CN2c3c(cccc3[C@@H]3CN(CCCOc4ccc(OCc5ccccc5)cc4)CC[C@@H]32)N1` [compound 35, (6bR,10aS)-8-(3-(4-(Benzyloxy)phenoxy)propyl)-6b,7,8,9,10,10a-hexahydro-1H-pyrido[3′,4′:4,5]-pyrrolo[1,2,3-de]quinoxalin-2(3H)-one]: the inhibition at 0.1 µM in experiment [2] came to 76%; in experiment [1] (setting [5]), 4.6%; in experiment [3], 68%; in experiment [4] (setting [5]), 23%.

On to `O=C1CN2c3c(cccc3[C@@H]3CN(CCCOc4ccccc4F)CC[C@@H]32)N1` [compound 36, (6bR,10aS)-8-(3-(2-Fluorophenoxy)propyl)-6b,7,8,9,10,10a-hexahydro-1H-pyrido[3′,4′:4,5]pyrrolo[1,2,3-de]quinoxalin-2(3H)-one], for which the inhibition at 0.1 µM in experiment [2] is 87%; in experiment [1] (setting [5]) it was 18%; in experiment [3] it was 5.1%; in experiment [4] (setting [5]) it was 28%.

Regarding `O=C1CN2c3c(cccc3[C@@H]3CN(CCCS(=O)(=O)c4ccc(F)cc4)CC[C@@H]32)N1` [compound 46, (6bR,10aS)-8-(3-((4-Fluorophenyl)sulfonyl)propyl)-6b,7,8,9,10,10a-hexahydro-1H-pyrido[3′,4′:4,5]-pyrrolo-[1,2,3-de]quinoxalin-2(3H)-one], the figures for the inhibition at 0.1 µM in experiment [2], in experiment [1] (setting [5]) and in experiment [4] (setting [5]) were 33%, less than 0% and less than 0%, respectively. For the same molecule, in experiment [3], the inhibition at 0.2 µM was less than 0%.

As to `CC1C(=O)Nc2cccc3c2N1[C@H]1CCN(CCCOc2ccc(F)cc2)C[C@@H]31` (stereo partly drawn) [compound 51, (6bR,10aS)-8-(3-(4-Fluorophenoxy)propyl)-1-methyl-6b,7,8,9,10,10a-hexahydro-1H-pyrido[3′,4′:4,5]-pyrrolo[1,2,3-de]quinoxalin-2(3H)-one], the inhibition at 0.1 µM was 88% in experiment [2], 26% in experiment [1] (setting [5]), less than 0% in experiment [3] and 49% in experiment [4] (setting [5]).

In the case of `CN1CC[C@]23c4c5ccc(O)c4O[C@H]2[C@@H](O)C=C[C@H]3[C@H]1C5` [morphine], the “licking response to formalin injection” value with male C57Bl/6 mice is recorded as “significantly suppressed”. Further, in the experiment on male CD-1 mice, the “analgesic effect after pretreatment with naloxone” value was “attenuated” and the “latency to tail flick compared to the vehicle” value is “significantly increased”.

Regarding `O=C1CCN2c3c(cccc3[C@@H]3CN(CCCOc4ccc(F)cc4)CC[C@@H]32)N1` [compound 53, (8aS,12aR)-11-(3-(4-Fluorophenoxy)propyl)-6,7,8a,9,10,11,12,12a-octahydro-[1,4]diazepino[3,2,1-hi]pyrido[4,3-b]indol-5(4H)-one], the figures for the inhibition at 0.1 µM in experiment [2], in experiment [1] (setting [5]) and in experiment [4] (setting [5]) were 93%, 14% and 24%, respectively. Besides, in experiment [3], the inhibition at 0.2 µM stood at 29%.

The values above are taken from article PMC11181336, “Discovery of ITI-333, a Novel Orally Bioavailable Molecule Targeting Multiple Receptors for the Treatment of Pain and Other Disorders” (Journal of Medicinal Chemistry, 2024).
